The values that follow are results of earlier work, collected in patent US12472143B2, “Blend compositions for oral administration as a rapidly dissolving powder and/or suspension” (MARENDA PHARMACEUTICALS LLC, priority 2017, dated 2025).

On to `CC(C)Cc1ccc(C(C)C(=O)O)cc1` (stereo not shown) [Ibuprofen], for which the solubility in water result is reported as “sparingly soluble”.
